From ChEMBL document CHEMBL1153594, “Design, synthesis and biological evaluation of novel 2-[(2,4-diaryl-3-azabicyclo[3.3.1]nonan-9-ylidene)hydrazono]-1,3-thiazolidin-4-ones as a new class of antimicrobial agents” (2009)
In brackets after ≈: the same amount, converted by molar mass. Activity calls are given as the source filed them. No cut-off for these calls is given here.

Columns and labels:
[1] = tested on: Aspergillus niger; experiment: Antifungal activity against Aspergillus niger ATCC 598 after 72 to 96 hrs by twofold serial dilution method; type: functional
[2] = tested on: Aspergillus flavus; experiment: Antifungal activity against Aspergillus flavus ATCC 485 at 200 ug/mL after 72 to 96 hrs by twofold serial dilution method; type: functional, organism-based
[3] = tested on: Escherichia coli; experiment: Antibacterial activity against Escherichia coli ATCC 25835 after 24 hrs by twofold serial dilution method; type: functional; details: ATCC 25835, 24 h
[4] = tested on: Salmonella enterica subsp. enterica; experiment: Antibacterial activity against Salmonella typhi ATCC 24915 at 200 ug/mL after 24 hrs by twofold serial dilution method; type: functional, organism-based; details: Salmonella enterica subsp. enterica serovar Typhi
[5] = tested on: Klebsiella pneumoniae; experiment: Antibacterial activity against Klebsiella pneumoniae ATCC 15490 after 24 hrs by twofold serial dilution method; type: functional; details: ATCC 15490, 24 h
[6] = tested on: Bacillus subtilis; experiment: Antibacterial activity against Bacillus subtilis ATCC 451 after 24 hrs by twofold serial dilution method; type: functional; details: ATCC 451, 24 h
[7] = tested on: Staphylococcus aureus; experiment: Antibacterial activity against Staphylococcus aureus ATCC 25825 after 24 hrs by twofold serial dilution method; type: functional; details: ATCC 25825, 24 h
[8] = tested on: Rhizopus; experiment: Antifungal activity against Rhizopus sp. ATCC 2915 after 72 to 96 hrs by twofold serial dilution method; type: functional
[9] = tested on: Candida albicans; experiment: Antifungal activity against Candida albicans ATCC 3122 by twofold serial dilution method; type: functional
[10] = tested on: Cryptococcus neoformans; experiment: Antifungal activity against Cryptococcus neoformans ATCC 3312 after 72 to 96 hrs by twofold serial dilution method; type: functional
[11] = tested on: Aspergillus flavus; experiment: Antifungal activity against Aspergillus flavus ATCC 485 after 72 to 96 hrs by twofold serial dilution method; type: functional
[12] = tested on: Salmonella enterica subsp. enterica; experiment: Antibacterial activity against Salmonella typhi ATCC 24915 after 24 hrs by twofold serial dilution method; type: functional, Salmonella enterica subsp. enterica serovar Typhi; details: ATCC 24915, 24 h
[13] = tested on: Rhizopus; experiment: Antifungal activity against Rhizopus sp. ATCC 2915 at 200 ug/mL after 72 to 96 hrs by twofold serial dilution method; type: functional, organism-based
[14] = tested on: Klebsiella pneumoniae; experiment: Antibacterial activity against Klebsiella pneumoniae ATCC 15490 at 200 ug/mL after 24 hrs by twofold serial dilution method; type: functional, organism-based
[15] = tested on: Aspergillus niger; experiment: Antifungal activity against Aspergillus niger ATCC 598 at 200 ug/mL after 72 to 96 hrs by twofold serial dilution method; type: functional, organism-based
[16] = tested on: Escherichia coli; experiment: Antibacterial activity against Escherichia coli ATCC 25835 at 200 ug/mL after 24 hrs by twofold serial dilution method; type: functional, organism-based
[17] = tested on: Candida albicans; experiment: Antifungal activity against Candida albicans ATCC 3122 at 200 ug/mL by twofold serial dilution method; type: functional, organism-based

Structure (SMILES)	MIC [1]	MIC [2]	MIC [3]	MIC [4]	MIC [5]	MIC [6]	MIC [7]	MIC [8]	MIC [9]	MIC [10]	MIC [11]	MIC [12]	MIC [13]	MIC [14]	MIC [15]	MIC [16]	MIC [17]
Cc1ccc(C2NC(c3ccc(C)cc3)C3CCCC2C3=NNC(N)=S)cc1 (stereo not given)	200 µg/mL (≈ 509 µM)	inactive	50 µg/mL (≈ 127 µM)	inactive	100 µg/mL (≈ 255 µM)	100 µg/mL (≈ 255 µM)	12.5 µg/mL (≈ 31.8 µM)	100 µg/mL (≈ 255 µM)	200 µg/mL (≈ 509 µM)	200 µg/mL (≈ 509 µM)	–	–	–	–	–	–	–
NC(=S)NN=C1C2CCCC1C(c1ccccc1)NC2c1ccccc1 (stereo not given)	200 µg/mL (≈ 549 µM)	–	100 µg/mL (≈ 274 µM)	–	200 µg/mL (≈ 549 µM)	100 µg/mL (≈ 274 µM)	50 µg/mL (≈ 137 µM)	–	200 µg/mL (≈ 549 µM)	100 µg/mL (≈ 274 µM)	200 µg/mL (≈ 549 µM)	200 µg/mL (≈ 549 µM)	inactive	–	–	–	–
O=C1CS/C(=N\N=C2C3CCCC2C(c2ccc(F)cc2)NC3c2ccc(F)cc2)N1 (stereo not given)	200 µg/mL (≈ 454 µM)	–	50 µg/mL (≈ 114 µM)	–	100 µg/mL (≈ 227 µM)	25 µg/mL (≈ 56.8 µM)	6.25 µg/mL (≈ 14.2 µM)	100 µg/mL (≈ 227 µM)	6.25 µg/mL (≈ 14.2 µM)	25 µg/mL (≈ 56.8 µM)	100 µg/mL (≈ 227 µM)	12.5 µg/mL (≈ 28.4 µM)	–	–	–	–	–
COc1ccc(C2NC(c3ccc(OC)cc3)C3CCCC2C3=N/N=C2/NC(=O)CS2)cc1 (stereo not given)	100 µg/mL (≈ 215 µM)	inactive	100 µg/mL (≈ 215 µM)	–	25 µg/mL (≈ 53.8 µM)	50 µg/mL (≈ 108 µM)	6.25 µg/mL (≈ 13.5 µM)	200 µg/mL (≈ 430 µM)	100 µg/mL (≈ 215 µM)	50 µg/mL (≈ 108 µM)	–	100 µg/mL (≈ 215 µM)	–	–	–	–	–
NC(=S)NN=C1C2CCCC1C(c1ccccc1Cl)NC2c1ccccc1Cl (stereo not given)	100 µg/mL (≈ 231 µM)	–	100 µg/mL (≈ 231 µM)	–	50 µg/mL (≈ 115 µM)	100 µg/mL (≈ 231 µM)	200 µg/mL (≈ 461 µM)	25 µg/mL (≈ 57.7 µM)	200 µg/mL (≈ 461 µM)	100 µg/mL (≈ 231 µM)	100 µg/mL (≈ 231 µM)	50 µg/mL (≈ 115 µM)	–	–	–	–	–
CN[C@@H]1[C@H](O[C@H]2[C@H](O[C@H]3[C@H](O)[C@@H](O)[C@H](N=C(N)N)[C@@H](O)[C@@H]3N=C(N)N)O[C@@H](C)[C@]2(O)C=O)O[C@@H](CO)[C@H](O)[C@H]1O [STREPTOMYCIN]	–	–	12.5 µg/mL (≈ 21.5 µM)	–	25 µg/mL (≈ 43 µM)	12.5 µg/mL (≈ 21.5 µM)	50 µg/mL (≈ 86 µM)	–	–	–	–	50 µg/mL (≈ 86 µM)	–	–	–	–	–
COc1cccc(C2NC(c3cccc(OC)c3)C3CCCC2C3=NNC(N)=S)c1 (stereo not given)	50 µg/mL (≈ 118 µM)	inactive	25 µg/mL (≈ 58.9 µM)	–	100 µg/mL (≈ 236 µM)	50 µg/mL (≈ 118 µM)	50 µg/mL (≈ 118 µM)	100 µg/mL (≈ 236 µM)	50 µg/mL (≈ 118 µM)	100 µg/mL (≈ 236 µM)	–	200 µg/mL (≈ 471 µM)	–	–	–	–	–
C[C@@H]1[C@H](O)[C@@H](C)/C=C/C=C/C=C/C=C/C=C/C=C/C=C/[C@H](O[C@@H]2O[C@H](C)[C@@H](O)[C@H](N)[C@@H]2O)C[C@@H]2O[C@](O)(C[C@@H](O)C[C@@H](O)[C@H](O)CC[C@@H](O)C[C@@H](O)CC(=O)O[C@H]1C)C[C@H](O)[C@H]2C(=O)O [AMPHOTERICIN B]	50 µg/mL (≈ 54.1 µM)	–	–	–	–	–	–	25 µg/mL (≈ 27.1 µM)	25 µg/mL (≈ 27.1 µM)	25 µg/mL (≈ 27.1 µM)	50 µg/mL (≈ 54.1 µM)	–	–	–	–	–	–
O=C1CS/C(=N\N=C2C3CCCC2C(c2ccc(Cl)cc2)NC3c2ccc(Cl)cc2)N1 (stereo not given)	25 µg/mL (≈ 52.8 µM)	–	100 µg/mL (≈ 211 µM)	–	50 µg/mL (≈ 106 µM)	25 µg/mL (≈ 52.8 µM)	6.25 µg/mL (≈ 13.2 µM)	6.25 µg/mL (≈ 13.2 µM)	25 µg/mL (≈ 52.8 µM)	12.5 µg/mL (≈ 26.4 µM)	100 µg/mL (≈ 211 µM)	6.25 µg/mL (≈ 13.2 µM)	–	–	–	–	–
O=C1CS/C(=N/N=C2C3CCCC2C(c2ccccc2Cl)NC3c2ccccc2Cl)N1 (stereo not given)	25 µg/mL (≈ 52.8 µM)	–	25 µg/mL (≈ 52.8 µM)	–	–	100 µg/mL (≈ 211 µM)	100 µg/mL (≈ 211 µM)	6.25 µg/mL (≈ 13.2 µM)	50 µg/mL (≈ 106 µM)	100 µg/mL (≈ 211 µM)	50 µg/mL (≈ 106 µM)	50 µg/mL (≈ 106 µM)	–	inactive	–	–	–
O=C1CS/C(=N\N=C2C3CCCC2C(c2ccccc2)NC3c2ccccc2)N1 (stereo not given)	–	–	12.5 µg/mL (≈ 30.9 µM)	–	50 µg/mL (≈ 124 µM)	25 µg/mL (≈ 61.8 µM)	50 µg/mL (≈ 124 µM)	200 µg/mL (≈ 494 µM)	50 µg/mL (≈ 124 µM)	50 µg/mL (≈ 124 µM)	200 µg/mL (≈ 494 µM)	100 µg/mL (≈ 247 µM)	–	–	inactive	–	–
COc1cccc(C2NC(c3cccc(OC)c3)C3CCCC2C3=N/N=C2/NC(=O)CS2)c1 (stereo not given)	50 µg/mL (≈ 108 µM)	–	50 µg/mL (≈ 108 µM)	–	50 µg/mL (≈ 108 µM)	100 µg/mL (≈ 215 µM)	100 µg/mL (≈ 215 µM)	100 µg/mL (≈ 215 µM)	50 µg/mL (≈ 108 µM)	100 µg/mL (≈ 215 µM)	200 µg/mL (≈ 430 µM)	6.25 µg/mL (≈ 13.5 µM)	–	–	–	–	–
O=C1CS/C(=N\N=C2C3CCCC2C(c2cccc(F)c2)NC3c2cccc(F)c2)N1 (stereo not given)	100 µg/mL (≈ 227 µM)	–	100 µg/mL (≈ 227 µM)	–	–	50 µg/mL (≈ 114 µM)	100 µg/mL (≈ 227 µM)	6.25 µg/mL (≈ 14.2 µM)	6.25 µg/mL (≈ 14.2 µM)	12.5 µg/mL (≈ 28.4 µM)	50 µg/mL (≈ 114 µM)	6.25 µg/mL (≈ 14.2 µM)	–	inactive	–	–	–
NC(=S)NN=C1C2CCCC1C(c1ccc(F)cc1)NC2c1ccc(F)cc1 (stereo not given)	100 µg/mL (≈ 250 µM)	–	–	–	100 µg/mL (≈ 250 µM)	25 µg/mL (≈ 62.4 µM)	50 µg/mL (≈ 125 µM)	100 µg/mL (≈ 250 µM)	50 µg/mL (≈ 125 µM)	25 µg/mL (≈ 62.4 µM)	6.25 µg/mL (≈ 15.6 µM)	12.5 µg/mL (≈ 31.2 µM)	–	–	–	inactive	–
COc1ccc(C2NC(c3ccc(OC)cc3)C3CCCC2C3=NNC(N)=S)cc1 (stereo not given)	200 µg/mL (≈ 471 µM)	–	50 µg/mL (≈ 118 µM)	–	100 µg/mL (≈ 236 µM)	50 µg/mL (≈ 118 µM)	25 µg/mL (≈ 58.9 µM)	200 µg/mL (≈ 471 µM)	–	50 µg/mL (≈ 118 µM)	100 µg/mL (≈ 236 µM)	200 µg/mL (≈ 471 µM)	–	–	–	–	inactive
NC(=S)NN=C1C2CCCC1C(c1ccc(Cl)cc1)NC2c1ccc(Cl)cc1 (stereo not given)	100 µg/mL (≈ 231 µM)	–	6.25 µg/mL (≈ 14.4 µM)	–	200 µg/mL (≈ 461 µM)	100 µg/mL (≈ 231 µM)	25 µg/mL (≈ 57.7 µM)	50 µg/mL (≈ 115 µM)	25 µg/mL (≈ 57.7 µM)	25 µg/mL (≈ 57.7 µM)	6.25 µg/mL (≈ 14.4 µM)	100 µg/mL (≈ 231 µM)	–	–	–	–	–
Cc1ccc(C2NC(c3ccc(C)cc3)C3CCCC2C3=N/N=C2/NC(=O)CS2)cc1 (stereo not given)	–	–	50 µg/mL (≈ 116 µM)	–	25 µg/mL (≈ 57.8 µM)	25 µg/mL (≈ 57.8 µM)	25 µg/mL (≈ 57.8 µM)	50 µg/mL (≈ 116 µM)	100 µg/mL (≈ 231 µM)	100 µg/mL (≈ 231 µM)	25 µg/mL (≈ 57.8 µM)	100 µg/mL (≈ 231 µM)	–	–	inactive	–	–
NC(=S)NN=C1C2CCCC1C(c1cccc(F)c1)NC2c1cccc(F)c1 (stereo not given)	25 µg/mL (≈ 62.4 µM)	–	100 µg/mL (≈ 250 µM)	–	25 µg/mL (≈ 62.4 µM)	25 µg/mL (≈ 62.4 µM)	6.25 µg/mL (≈ 15.6 µM)	100 µg/mL (≈ 250 µM)	25 µg/mL (≈ 62.4 µM)	25 µg/mL (≈ 62.4 µM)	50 µg/mL (≈ 125 µM)	50 µg/mL (≈ 125 µM)	–	–	–	–	–
